{"source": "patent US12006310B2", "about": "“Preparation and application of triterpenoids with effect of improving glucose and lipid metabolism disorders” (SERICULTURAL&AGRI-FOOD RESEARCH INSTITUTE GUANGDONG ACADEMY …, priority 2022, dated 2024)", "key": {"[1]": {"tested_on": "primary isolated hepatic parenchymal cells of SD rats", "assay": "Hepatic gluconeogenesis inhibitory activity in primary hepatocytes", "type": "cell-based", "details": "for inhibition at 20 µM / inhibition at 40 µM: Rattus norvegicus, Hepatocyte, read-out: hepatic gluconeogenesis inhibitory activity", "from_the_text": "In this embodiment, primary isolated hepatic parenchymal cells of SD rats (purchased from Experimental Animal Center of Southern Medical University) were used as a model, and berberine, a traditional Chinese medicine as a hypoglycemic agent, was used as a positive control to evaluate an impact of the novel triterpenoid compound (23R, 25E)-3β-hydroxy-23-methoxycucurbita-6,25-dien-5β,19-olide3-O-β-d-allopyranoside and Momordicoside G, and compositions thereof in different proportions (novel triterpenoid compound:Momordicoside G=1:0.5, 1:1.0, or 1:1.5) on hepatic gluconeogenesis, thereby further elaborating beneficial effects of the present invention. The process was as follows:\nIn-situ perfusion digestion was used to digest SD rat liver with type IV collagenase. After being dispersed, hepatocytes were transferred to a 49% Percoll separation solution for centrifugation. After supernatant was discarded, the cells adhered for 6 hours to a 24-well plate coated with 0.2% gelatin. After starvation in a serum-free low-sugar medium for 8 hours, the supernatant was discarded, the cells were washed with PBS buffer, and then a reaction solution (sugar-free DMEM containing 2 mM sodium pyruvate and 20 mM sodium lactate) was added, waiting for a sample test.\nTriterpenoid compounds (a novel triterpenoid compound and Momordicoside G) were dissolved in dimethyl sulfoxide (DMSO) to prepare […] mother liquor. Through dilution with the foregoing reaction solution, the final concentrations of the triterpenoid compounds finally added into cell culture wells were 20 μM and 40 μM respectively, and the final concentration of the DMSO was 0.4%. A negative control was a reaction solution containing the DMSO with the same concentration (0.4%). Berberine, a positive control, was prepared into 40 mM with ultrapure water, the final concentrations for the test were 20 μM and 40 μM, and the final concentration of the DMSO was kept at 0.4%. To-be-tested samples were added into the cell reaction solution, and continued to be cultured for 6 hours. Then the glucose concentration in the culture medium (that is, the reaction solution) of each well was measured, and then the medium was discarded. After being washed with PBS, the cells were lysed with 250 mM NaOH, and the protein concentration was measured by using a Coomassie brilliant blue method. By reading an absorbance value, the concentration of glucose in the medium in all sample wells and the concentration of protein after lysis were determined by using a standard curve method, and a ratio of the two was used to measure an average gluconeogenesis level of the cells in the wells."}, "3T3-L1 preadipocytes": {"tested_on": "3T3-L1 preadipocytes", "assay": "Inhibitory activity against 3T3-L1 preadipocyte-induced differentiation (oil red O staining)", "type": "cell-based, mouse", "details": "for content of lipid droplets after oil red O staining: 20 μM and 40 μM, compared with differentiation solution group", "method": "A mouse embryonic fibroblast 3T3-L1 cell line (preadipocytes) was purchased from Shanghai Cell Bank, Chinese Academy of Sciences.\nIn the test, samples fell into an undifferentiation control group (cultured with a normal DMEM), a negative control group (cultured with a DMEM containing a differentiation solution), and a sample intervention group [cultured with a DMEM containing a differentiation solution+a or 40 μM triterpenoid compound or triterpenoid composition (novel triterpenoid compound:Momordicoside G=0.5, 1.0, or 1.5)]. Differentiation was induced by using a methylisobutylxanthine, dexamethasone and insulin, (MDI) induction medium (the induction medium is a differentiation solution, and the differentiation solution includes a high-sugar DMEM containing 0.5 mmol/L IBMX, 1 μmol/L DEX, 10 mg/L insulin, and 10% FCS). 3T3-L1 preadipocytes were cultured in an incubator with 5% CO2 and 37° C. saturated humidity, and cultured in the DMEM containing 10% FCS until the density of monolayer adherent cells was greater than or equal to 90%. After being washed with Hanks' balanced salt solution (HBSS), the cells were digested by trypsin, and then inoculated into a 6-well culture plate (1×10^5 cells/well). After cell contact inhibition, a fresh DMEM containing 10% FCS was used for fusion culture for 2 days. On the 3rd day (that is, the 0th day of differentiation), the cells were cultured in the differentiation solution for culture, and 0.1% DMSO and a novel triterpenoid compound (23R, 25E)-3β-hydroxy-23-methoxycucurbita-6,25-dien-5β,19-olide3-O-β-d-allopyranoside with concentration gradients of 20 μM and 40 μM or known compound Momordicoside G or a composition of the two were added in the sample intervention group. 0.1% DMSO was added in the negative control group. On the 2nd day of differentiation, the medium was replaced with a DMEM containing only 10 mg/L insulin and 10% FCS, the samples of each group continued to be cultured, and the medium was replaced once every 2 days until the experiment ended on the 8th day of differentiation. After the experiment ended, the medium was discarded, the cells were washed twice with cold PBS, and the cells were fixed with 4% paraformaldehyde solution for 60 min. After paraformaldehyde was removed and PBS was added for washing, the fixed cells were stained with an oil red O dye kit (Solarbio, G1262-4) for 1 hour, and the cells were washed with 60% isopropanol for 3 times to remove the uncolored oil red O dye and were photographed for observation. After the observation, the cells were lysed with lysate (containing 4% NP-40), and an absorbance value at 490 nm was measured, and calculated by using an OD value."}, "[2]": {"details": "20 μM, 6 hours culture, primary hepatocytes"}, "[3]": {"details": "40 μM, 6 hours culture, primary hepatocytes"}}, "note": "Like-named read-outs stand apart in the source and are kept apart here.", "data": [{"compound": "COc1ccc2cc3[n+](cc2c1OC)CCc1cc2c(cc1-3)OCO2", "note": "[berberine]", "values": [{"measurement": "inhibition at 20 µM", "setting": "[1]; [2]", "result": 15.6, "unit": "%"}, {"measurement": "inhibition at 40 µM", "setting": "[1]; [3]", "result": 35.2, "unit": "%"}]}, {"compound": "COC(C=C(C)C)C[C@@H](C)[C@H]1CC[C@@]2(C)C3C=CC45OC(=O)[C@]3(CC[C@]12C)C4CC[C@H](O[C@@H]1O[C@H](CO)[C@H](O)[C@H](O)[C@H]1O)C5(C)C", "note": "(stereo partly drawn) [novel triterpenoid compound, (23R, 25E)-3β-hydroxy-23-methoxycucurbita-6,25-dien-5β,19-olide3-O-β-d-allopyranoside]", "values": [{"measurement": "inhibition at 20 µM", "setting": "[1]; 6 h", "result": 32.1, "unit": "%"}, {"measurement": "inhibition at 40 µM", "setting": "[1]; 6 h", "result": 28.9, "unit": "%"}, {"measurement": "content of lipid droplets after oil red O staining", "setting": "3T3-L1 preadipocytes", "result": "decreased significantly"}, {"measurement": "inhibition at 20 µM", "setting": "3T3-L1 preadipocytes; Mus musculus, 3T3-L1, 20 μM, 8th day of differentiation, oil red O, absorbance 490 nm, vs differentiation solution group, read-out: inhibition rate on differentiation of 3T3-L1 preadipocytes", "result": 35.5, "unit": "%"}, {"measurement": "inhibition at 40 µM", "setting": "3T3-L1 preadipocytes; Mus musculus, 3T3-L1, 40 μM, 8th day of differentiation, oil red O, absorbance 490 nm, vs differentiation solution group, read-out: inhibition rate on differentiation of 3T3-L1 preadipocytes", "result": 56.4, "unit": "%"}]}, {"compound": "Momordicoside G", "values": [{"measurement": "hepatic gluconeogenesis inhibitory activity", "setting": "[1]; [2]", "result": 20.75, "unit": "%"}, {"measurement": "hepatic gluconeogenesis inhibitory activity", "setting": "[1]; [3]", "result": 34.42, "unit": "%"}, {"measurement": "content of lipid droplets after oil red O staining", "setting": "3T3-L1 preadipocytes", "result": "decreased significantly"}, {"measurement": "inhibition rate on differentiation of 3T3-L1 preadipocytes", "setting": "3T3-L1 preadipocytes; 20 μM, 8th day of differentiation, oil red O, absorbance 490 nm, vs differentiation solution group", "result": 23.77, "unit": "%"}, {"measurement": "inhibition rate on differentiation of 3T3-L1 preadipocytes", "setting": "3T3-L1 preadipocytes; 40 μM, 8th day of differentiation, oil red O, absorbance 490 nm, vs differentiation solution group", "result": 51.27, "unit": "%"}]}]}
